Here are results for 14 compounds from patent publication US12673041B2, “4-aminobut-2-enamide derivatives and salt thereof” (TAIHO PHARMACEUTICAL CO., LTD., priority 2019, dated 2026).

The target in assay [1] is Gppcp-bound recombinant K-Ras4B G12C mutant protein (amino acids 1-169, C51S/C80L/C118S) (Homo sapiens, UniProt P01116, C118S/C51S/C80L/G12C). The experiment in a line: KRASG12C binding assay (LC-MS compound binding rate). To be noted: test compound final concentration 0.5 μM, 25° C., 1 hour. The protocol:
As test compounds for the KRASG12C binding assay, the compounds obtained in the “Preparation of Compounds” section were used. Sample solutions each containing a test compound were prepared in the form of a 10 mM DMSO solution.
Gppcp-bound recombinant K-Ras4B G12C mutant protein (amino acids 1-169, C51S/C80L/C118S, SEQ ID NO:1) was diluted with a buffer (1×TBS, 0.1 mM TCEP, 0.25 mM MgCl2, 50 μM Gppcp) to prepare a 50 nM protein solution. K-Ras4B is the major splicing variant of K-Ras. Amino acid sequence of residues 1 to 150 including the compounds' binding region of K-Ras4B is exactly same as that of K-Ras4A, the other splicing variant (Oncotarget. 2016 Jul. 19; 7(29): 46717-46733). A sample solution containing 10 mM test compound was diluted ten-fold with DMSO to make a 1 mM sample solution, and then diluted twenty-fold with DMSO to make a 50 μM sample solution. 1 μL of a 50 μM sample solution was added to 100 μL of a 50 nM protein solution to adjust the final concentration of a test compound to be 0.5 μM in the mixture. The mixtures were stored in an incubator at 25° C. for 1 hour, and 10 μL of a 1×TBS solution containing 2% formic acid was added to stop the reaction, followed by LC-MS measurement. LC-MS measurement was performed using Xevo G2-S Q-Tof manufactured by Waters, and reverse-phase chromatography was performed with a desalting column. A mass spectrum of positive ions was obtained by electrospray. For a mass spectrum, a spectrum of polyvalent ions was collectively converted to a molecular weight by using OpenLynx software by the MaxEnt technique, and a compound binding rate was calculated from the ratio of the signal intensity of a peak that corresponds to the molecular weight of the protein to the signal intensity of a peak that corresponds to the molecular weight of the protein conjugated with the compound.
The binding assay of the test compounds was conducted at a final concentration of 0.5 μM. A binding rate of 80% or more is rated “A”, a binding rate of 60% or more and less than 80% is rated “B”, a binding rate of 40% or more and less than 60% is rated “C”, a binding rate of 20% or more and less than 40% is rated “D”, and a binding rate of less than 20% is rated “E”. N.D.=not determined. Binding rate % is the ratio of KRAS signal intensity at the molecular weight of one molecule adduct to the sum of all the KRAS signal intensity (unbound form and adducts) in mass spectrum.
Thus, binding rate 100% means that only the one molecule adduct was observed without any unbound KRAS.

For assay [2], the target named is T1, GMPPNP-bound KRAS G12C protein and cRAF RAS-binding domain (cRAF-RBD) (Homo sapiens, UniProt P01116, G12C).
T1 construct: made in house; host or cells: E. coli
The experiment in a line: Inhibitory activity on interaction between KRAS G12C and cRAF (Alpha technology). Conditions: GMPPNP-bound KRAS G12C incubated with compound at 25° C. for 1 hour, then cRAF-RBD, Alpha signal; read-out: IC50. The assay is classed as biochemical. The procedure:
Interaction between recombinant K-Ras4B G12C mutant protein (amino acids 1-169, SEQ ID NO:2) and cRAF RAS-binding domain (cRAF-RBD, amino acids 50-132, Jena Biosciences GmbH) was measured using Alpha technology (PerkinElmer Inc.).
Recombinant KRAS G12C protein with an N-terminal His-tag was expressed in E. coli and purified by affinity chromatography. To prepare GTP-bound form and GDP-bound form of KRAS G12C protein, 50 μM KRAS G12C protein was incubated with 1 mM GMPPNP (Guanosine-5′-[(β,γ)-imido]triphosphate, Tetralithium salt) (Jena Bioscience GmbH) and 1 mM GDP, respectively, in a loading buffer (20 mM Tris-HCl (pH 7.5), 50 mM NaCl, 1 mM DTT and 2.5 mM EDTA) for 1 hour on ice. After the incubation, MgCl2 was added to a final concentration of 10 mM, followed by incubation at room temperature for 30 minutes. The mixture was allowed to pass through a NAP-5 column to remove free nucleotides and purified, and the resultant nucleotide-bound KRAS G12C protein was used for compound evaluation.
For the measurement of the inhibitory activity of compounds on interaction between KRAS G12C and cRAF-RBD, GMPPNP-bound KRAS G12C protein was incubated with various concentrations of compound in a reaction buffer (20 mM Tris-HCl (pH 7.5), 100 mM NaCl, 1 mM MgCl2, 1 mM TCEP, 0.1% Tween 20) at 25° C. for 1 hour. After the incubation, recombinant cRAF-RBD and Alpha detection reagents were added and incubated at room temperature for 1.5 hours for binding. Interaction 5 of KRAS G12C and cRAF-RBD was monitored by measuring Alpha signal. Inhibition % was calculated using the signal from the reaction without test compound (DMSO control) as 0% inhibition and the signal from the reaction using GDP-bound KRAS G12C in place of GMPPNP-bound KRAS G12C as 100% inhibition. IC50 values were calculated from dose titration curve using curve fitting by XLfit software (IDBS).

The structures appear in SMILES notation.

Usually IC50 stands for the concentration needed to halve the response being measured. For `CO[C@H]1CC[C@H](NC/C=C/C(=O)Nc2ccc(C(=O)c3ccc4c(-c5ccccc5Cl)cccn34)cc2C#N)CC1` [Example 45, (E)-N-(4-(8-(2-chlorophenyl)indolizine-3-carbonyl)-2-cyanophenyl)-4-(((1r,4r)-4-methoxycyclohexyl)amino)but-2-enamide], the binding rate result in assay [1] is “B (a binding rate of 60% or more and less than 80% is rated “B”)”. For the same compound, the IC50 in assay [2] turned out to be 320 nM.

In the case of `CO[C@H]1CC[C@H](NC/C=C/C(=O)Nc2ccc(C(=O)c3ccc4c(-c5c(O)cccc5F)cccn34)cc2C#N)CC1` [Example 46, (E)-N-(2-cyano-4-(8-(2-fluoro-6-hydroxyphenyl)indolizine-3-carbonyl)phenyl)-4-(((1r,4r)-4-methoxycyclohexyl)amino)but-2-enamide], the binding rate result in assay [1] was “A (A binding rate of 80% or more is rated “A”)”. Besides, in assay [2], the IC50 worked out at 170 nM.

Consider `CO[C@H]1CC[C@H](NC/C=C/C(=O)Nc2ccc(C(=O)c3c[nH]c4c(-c5cc6ncn(C)c6cc5C(F)(F)F)cc(Cl)cc34)cc2C#N)CC1` [Example 47, (E)-N-(4-(5-chloro-7-(1-methyl-6-(trifluoromethyl)-1H-benzo[d]imidazol-5-yl)-1H-indole-3-carbonyl)-2-cyanophenyl)-4-(((1r,4r)-4-methoxycyclohexyl)amino)but-2-enamide], for which the binding rate result in assay [1] is “A (A binding rate of 80% or more is rated “A”)”. Moreover, the IC50 in assay [2] is 560 nM.

In the case of `CO[C@H]1CC[C@H](NC/C=C/C(=O)NC2CCN(C(=O)c3ccc4c(-c5cc6ncn(C)c6cc5C)cccn34)CC2)CC1` [Example 48, (2E)-N-{1-[8-(1,6-dimethyl-1H-1,3-benzodiazol-5-yl)indolizine-3-carbonyl]piperidin-4-yl}-4-{[trans-4-methoxycyclohexyl]amino}but-2-enamide], the binding rate result in assay [1] was “E (a binding rate of less than 20% is rated “E”)”. Further, the IC50 in assay [2] was over 6700 nM.

Consider `Cc1cc(C(=O)c2ccc3c(-c4cc5ncn(C)c5cc4C(F)(F)F)cccn23)cc(C#N)c1NC(=O)/C=C/CNC(C)(C)C` [Example 50, (2E)-4-(tert-Butylamino)-N-(2-cyano-6-methyl-4-{8-[1-methyl-6-(trifluoromethyl)-1H-1,3-benzodiazol-5-yl]indolizine-3-carbonyl}phenyl)but-2-enamide], for which the binding rate result in assay [1] was “E (a binding rate of less than 20% is rated “E”)”. The IC50 in assay [2] is 1200 nM.

For `Cn1cc2c(Cl)c(-c3cccn4c(C(=O)c5ccc(NC(=O)/C=C/CNC(C)(C)C)c(C#N)c5)ccc34)ccc2n1` [Example 52, (2E)-4-(tert-Butylamino)-N-{4-[8-(4-chloro-2-methyl-2H-indazol-5-yl)indolizine-3-carbonyl]-2-cyanophenyl}but-2-enamide], the binding rate result in assay [1] is “B (a binding rate of 60% or more and less than 80% is rated “B”)”. For the same compound, the IC50 in assay [2] amounted to 260 nM.

For the compound `Cc1ccc2c(cnn2C)c1-c1cccn2c(C(=O)c3ccc(NC(=O)/C=C/CNC(C)(C)C)c(C#N)c3)ccc12` [Example 53, (2E)-4-(tert-Butylamino)-N-{2-cyano-4-[8-(1,5-dimethyl-1H-indazol-4-yl)indolizine-3-carbonyl]phenyl}but-2-enamide], the binding rate result in assay [1] is reported as “A (A binding rate of 80% or more is rated “A”)”. For the same compound, in assay [2], the IC50 worked out at 150 nM.

Regarding `Cc1cc2c(cnn2C)cc1-c1cccn2c(C(=O)c3ccc(NC(=O)/C=C/CNC(C)(C)C)c(C#N)c3)ccc12` [Example 54, (2E)-4-(tert-Butylamino)-N-{2-cyano-4-[8-(1,6-dimethyl-1H-indazol-5-yl)indolizine-3-carbonyl]phenyl}but-2-enamide], the binding rate entry in assay [1] was “A (A binding rate of 80% or more is rated “A”)”. Besides, the IC50 in assay [2] amounted to 180 nM.

For `CO[C@H]1CC[C@H](NC/C=C/C(=O)Nc2ccc(C(=O)c3ncc4c(-c5cc6ncn(C)c6cc5C)cccn34)cc2C#N)CC1` [Example 57, (E)-N-(2-cyano-4-(8-(1,6-dimethyl-1H-benzo[d]imidazol-5-yl)imidazo[1,5-a]pyridine-3-carbonyl)phenyl)-4-(((1r,4r)-4-methoxycyclohexyl)amino)but-2-enamide], the binding rate entry in assay [1] is “C (a binding rate of 40% or more and less than 60% is rated “C”)”. Moreover, the IC50 in assay [2] was 160 nM.

As to `CO[C@H]1CC[C@H](NC/C=C/C(=O)Nc2ccc(C(=O)c3nn(C)c4c(-c5cc6ncn(C)c6cc5C)cccc34)cc2C#N)CC1` [Example 58, (E)-N-(2-cyano-4-(7-(1,6-dimethyl-1H-benzo[d]imidazol-5-yl)-1-methyl-1H-indazole-3-carbonyl)phenyl)-4-(((1r,4r)-4-methoxycyclohexyl)amino)but-2-enamide], the binding rate result in assay [1] is “B (a binding rate of 60% or more and less than 80% is rated “B”)”. Moreover, the IC50 in assay [2] is 240 nM.

Consider `C=C(C)c1c(-c2cccn3c(C(=O)c4ccc(NC(=O)/C=C/CNC(C)(C)C)c(C#N)c4)ccc23)c(C)cc2c1ncn2C` [Example 61, (E)-4-(tert-butylamino)-N-(2-cyano-4-(8-(1,6-dimethyl-4-(prop-1-en-2-yl)-1H-benzo[d]imidazol-5-yl)indolizine-3-carbonyl)phenyl)but-2-enamide], for which the binding rate result in assay [1] is “A (A binding rate of 80% or more is rated “A”)”. Besides, the IC50 in assay [2] was found to be 230 nM.

Consider `CO[C@H]1CC[C@H](NC/C=C/C(=O)Nc2ccc(C(=O)c3cc(Cl)c4c(-c5cc6ncn(C)c6cc5C)cccn34)cc2C#N)CC1` [Example 65, (E)-N-(4-(1-chloro-8-(1,6-dimethyl-1H-benzo[d]imidazol-5-yl)indolizine-3-carbonyl)-2-cyanophenyl)-4-(((1r,4r)-4-methoxycyclohexyl)amino)but-2-enamide], for which the binding rate entry in assay [1] was “B (a binding rate of 60% or more and less than 80% is rated “B”)”. Further, the IC50 in assay [2] was 140 nM.

Turning to `CO[C@H]1CC[C@H](NC/C=C/C(=O)Nc2ccc(C(=O)c3ccc4c(-c5c(C)cc6c(ncn6C)c5-c5cncnc5)cccn34)cc2C#N)CC1` [Example 69, (E)-N-(2-cyano-4-(8-(1,6-dimethyl-4-(pyrimidin-5-yl)-1H-benzo[d]imidazol-5-yl)indolizine-3-carbonyl)phenyl)-4-(((1r,4r)-4-methoxycyclohexyl)amino)but-2-enamide], the binding rate entry in assay [1] was “B (a binding rate of 60% or more and less than 80% is rated “B”)”. Moreover, the IC50 in assay [2] amounted to 260 nM.

`CO[C@H]1CC[C@H](NC/C=C/C(=O)Nc2ccc(C(=O)c3ccc4c(-c5ccc6nn(C)cc6c5Cl)cccn34)cc2C#N)CC1` [Example 71, (E)-N-(4-(8-(4-chloro-2-methyl-2H-indazol-5-yl)indolizine-3-carbonyl)-2-cyanophenyl)-4-(((1r,4r)-4-methoxycyclohexyl)amino)but-2-enamide]: the binding rate result in assay [1] is reported as “A (A binding rate of 80% or more is rated “A”)”. Moreover, the IC50 in assay [2] came to 140 nM.
